Experimental data as given in PubChem BioAssay AID248 (DTP/NCI, 2004).
Where “and” joins values, the source holds several entries; their conditions need not be identical. Equal values may be shown once. Inconclusive results and toxic doses are left out.

Test system: L1210 leukemia ip in BDF1 mice, survival T/C
Test: NCI In Vivo Anticancer Drug Screen. Data for tumor model L1210 Leukemia (intraperitoneal) in B6D2F1 (BDF1) mice
Conditions: endpoint: mean survival time, higher = longer survival
Summary of the method: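 Value reflects the ratio of survival in compound-treated mice to survival in vehicle-treated controls, with both groups carrying the same transplanted tumor.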

[1] = dose: 25.0 mg/kg/injection, schedule: Q01DX009 (ip), vehicle: saline with Tween-80
[2] = dose: 100.0 mg/kg/injection, schedule: Q04DX003 (ip), vehicle: saline with Tween-80
[3] = dose: 100.0 mg/kg/injection, schedule: Q01DX001 (ip), vehicle: saline
[4] = dose: 200.0 mg/kg/injection, schedule: Q01DX001 (ip), vehicle: saline
[5] = dose: 400.0 mg/kg/injection, schedule: Q01DX001 (ip), vehicle: saline
[6] = dose: 100.0 mg/kg/injection, schedule: Q04DX003 (ip), vehicle: Klucel (hydroxypropylcellulose) (HPC)
[7] = dose: 200.0 mg/kg/injection, schedule: Q04DX003 (ip), vehicle: Klucel (hydroxypropylcellulose) (HPC)
[8] = dose: 400.0 mg/kg/injection, schedule: Q04DX003 (ip), vehicle: Klucel (hydroxypropylcellulose) (HPC)
[9] = dose: 100.0 mg/kg/injection, schedule: Q04DX002 (ip), vehicle: saline with Tween-80
[10] = dose: 200.0 mg/kg/injection, schedule: Q04DX002 (ip), vehicle: saline with Tween-80
[11] = dose: 50.0 mg/kg/injection, schedule: Q01DX009 (ip), vehicle: saline with Tween-80
[12] = dose: 100.0 mg/kg/injection, schedule: Q01DX009 (ip), vehicle: saline with Tween-80
[13] = dose: 100.0 mg/kg/injection, schedule: Q04DX003 (ip), vehicle: saline
[14] = dose: 200.0 mg/kg/injection, schedule: Q01DX009 (ip), vehicle: saline with Tween-80
[15] = dose: 200.0 mg/kg/injection, schedule: Q04DX003 (ip), vehicle: saline
[16] = dose: 400.0 mg/kg/injection, schedule: Q04DX003 (ip), vehicle: saline

Compound: O=C(C=C(C(F)(F)F)C(F)(F)F)c1cccc(C(F)(F)F)c1
- T/C (dose: 12.5 mg/kg/injection, schedule: Q01DX009 (ip), vehicle: saline with Tween-80): 102 % of control
- T/C [1]: 95 % of control
- T/C [2]: 89 % of control

Compound: O=C(Cn1ccc(=O)[nH]c1=O)Nc1ccc(C(=O)O)cc1
- T/C [3]: 96 % of control
- T/C [4]: 111 % of control
- T/C [5]: 96 % of control

Compound: COc1cc(N(CCCl)CCCl)c(OC)cc1/C=N\NC(=O)CN(C)C
- T/C (dose: 2.25 mg/kg/injection, schedule: Q01DX015 (ip), vehicle: saline): 105 % of control
- T/C (dose: 4.5 mg/kg/injection, schedule: Q01DX015 (ip), vehicle: saline): 108 % of control
- T/C (dose: 6.25 mg/kg/injection, schedule: Q01DX015 (ip), vehicle: saline): 119 % of control
- T/C (dose: 9.0 mg/kg/injection, schedule: Q01DX015 (ip), vehicle: saline): 116 % of control
- T/C (dose: 10.5 mg/kg/injection, schedule: Q01DX015 (ip), vehicle: saline): 114 % of control
- T/C (dose: 12.5 mg/kg/injection, schedule: Q01DX015 (ip), vehicle: saline): 115 % of control
- T/C (dose: 18.0 mg/kg/injection, schedule: Q01DX015 (ip), vehicle: saline): 111 % of control and 116 % of control
- T/C (dose: 25.0 mg/kg/injection, schedule: Q01DX015 (ip), vehicle: saline): 96 % of control
- T/C (dose: 30.0 mg/kg/injection, schedule: Q01DX015 (ip), vehicle: saline): 88 % of control
- T/C (dose: 36.0 mg/kg/injection, schedule: Q01DX015 (ip), vehicle: saline): 94 % of control
- T/C (dose: 44.7 mg/kg/injection, schedule: Q01DX001 (ip), vehicle: saline): 120 % of control
- T/C (dose: 50.0 mg/kg/injection, schedule: Q01DX015 (ip), vehicle: saline): 90 % of control
- T/C [3]: 162 % of control
- T/C (dose: 150.0 mg/kg/injection, schedule: Q01DX001 (ip), vehicle: saline): 124 % of control

Compound: O=C1c2cc(Cl)ccc2-c2c(NC(=O)C(Cl)Cl)cc(Cl)cc21
- T/C (dose: 100.0 mg/kg/injection, schedule: Q01DX001 (ip), vehicle: carboxymethylcellulose (CMC)): 91 % of control
- T/C (dose: 200.0 mg/kg/injection, schedule: Q01DX001 (ip), vehicle: carboxymethylcellulose (CMC)): 93 % of control
- T/C (dose: 400.0 mg/kg/injection, schedule: Q01DX001 (ip), vehicle: carboxymethylcellulose (CMC)): 96 % of control

Compound: COCC1CCCCC1O (configuration not stated)
- T/C (dose: 50.0 mg/kg/injection, schedule: Q01DX001 (ip), vehicle: saline): 101 % of control
- T/C [3]: 95 % of control
- T/C [4]: 101 % of control
- T/C [5]: 98 % of control

Compound: C[N+]1(CCO)CC[N+](C)(CCCN2c3ccccc3Sc3ccc(Cl)cc32)CC1 (configuration not stated)
- T/C (dose: 10.0 mg/kg/injection, schedule: Q01DX001 (ip), vehicle: carboxymethylcellulose (CMC)): 98 % of control
- T/C (dose: 20.0 mg/kg/injection, schedule: Q01DX001 (ip), vehicle: carboxymethylcellulose (CMC)): 101 % of control
- T/C (dose: 40.0 mg/kg/injection, schedule: Q01DX001 (ip), vehicle: carboxymethylcellulose (CMC)): 113 % of control

Compound: CN(N(P(c1ccccc1)c1ccccc1)P(c1ccccc1)c1ccccc1)P(c1ccccc1)c1ccccc1
- T/C (dose: 100.0 mg/kg/injection, schedule: Q01DX001 (ip), vehicle: steriod suspending solution): 110 % of control
- T/C (dose: 400.0 mg/kg/injection, schedule: Q01DX001 (ip), vehicle: steriod suspending solution): 94 % of control

Compound: CCC(CO)NC1CCCC1 (configuration not stated)
- T/C (dose: 75.0 mg/kg/injection, schedule: Q01DX001 (ip), vehicle: acid diluted with saline): 100 % of control
- T/C (dose: 150.0 mg/kg/injection, schedule: Q01DX001 (ip), vehicle: acid diluted with saline): 100 % of control
- T/C (dose: 300.0 mg/kg/injection, schedule: Q01DX001 (ip), vehicle: acid diluted with saline): 100 % of control

Compound: COc1cc(Oc2c(OC)cc(N)cc2OC)cc(OC)c1OC
- T/C [2]: 97 % of control
- T/C (dose: 200.0 mg/kg/injection, schedule: Q04DX003 (ip), vehicle: saline with Tween-80): 95 % of control
- T/C (dose: 400.0 mg/kg/injection, schedule: Q04DX003 (ip), vehicle: saline with Tween-80): 95 % of control

Compound: O=c1c2c([nH]c3ccccc13)CCCC2
- T/C (dose: 100.0 mg/kg/injection, schedule: Q01DX001 (ip), vehicle: Klucel (hydroxypropylcellulose) (HPC)): 97 % of control
- T/C [6]: 97 % of control
- T/C (dose: 200.0 mg/kg/injection, schedule: Q01DX001 (ip), vehicle: Klucel (hydroxypropylcellulose) (HPC)): 88 % of control
- T/C [7]: 94 % of control
- T/C (dose: 400.0 mg/kg/injection, schedule: Q01DX001 (ip), vehicle: Klucel (hydroxypropylcellulose) (HPC)): 93 % of control
- T/C [8]: 101 % of control

Compound: COc1ccc([N+](=O)[O-])cc1NC(=O)Nc1cccc(O)c1
- T/C (dose: 50.0 mg/kg/injection, schedule: Q01DX009 (ip), vehicle: Klucel (hydroxypropylcellulose) (HPC)): 90 % of control
- T/C (dose: 100.0 mg/kg/injection, schedule: Q01DX009 (ip), vehicle: Klucel (hydroxypropylcellulose) (HPC)): 90 % of control
- T/C (dose: 200.0 mg/kg/injection, schedule: Q01DX009 (ip), vehicle: Klucel (hydroxypropylcellulose) (HPC)): 90 % of control

Compound: Cc1ccc(CNC(=O)Cc2ccccc2)cc1C
- T/C [9]: 100 % of control
- T/C [10]: 100 % of control
- T/C (dose: 400.0 mg/kg/injection, schedule: Q04DX002 (ip), vehicle: saline with Tween-80): 110 % of control

Compound: Cn1c(=O)n(C)c2nccnc21
- T/C (dose: 12.5 mg/kg/injection, schedule: Q04DX002 (ip), vehicle: saline): 108 % of control
- T/C (dose: 25.0 mg/kg/injection, schedule: Q04DX002 (ip), vehicle: saline): 105 % of control
- T/C (dose: 50.0 mg/kg/injection, schedule: Q04DX002 (ip), vehicle: saline): 94 % of control

Compound: O=C(C[n+]1ccccc1)N/N=C/c1ccccc1Cl
- T/C [1]: 98 % of control
- T/C [11]: 98 % of control
- T/C [12]: 100 % of control

Compound: CCCCCC(CN(C)C)C(O)CCc1ccc(Cl)c(Cl)c1 (configuration not stated)
- T/C (dose: 25.0 mg/kg/injection, schedule: Q04DX002 (ip), vehicle: Klucel (hydroxypropylcellulose) (HPC)): 93 % of control
- T/C (dose: 50.0 mg/kg/injection, schedule: Q04DX002 (ip), vehicle: Klucel (hydroxypropylcellulose) (HPC)): 93 % of control
- T/C (dose: 100.0 mg/kg/injection, schedule: Q04DX002 (ip), vehicle: Klucel (hydroxypropylcellulose) (HPC)): 104 % of control
- T/C (dose: 200.0 mg/kg/injection, schedule: Q04DX002 (ip), vehicle: Klucel (hydroxypropylcellulose) (HPC)): 88 % of control
- T/C (dose: 400.0 mg/kg/injection, schedule: Q04DX002 (ip), vehicle: Klucel (hydroxypropylcellulose) (HPC)): 117 % of control

Compound: O=C(OCCO)c1ccccc1
- T/C [12]: 97 % of control
- T/C [13]: 106 % of control
- T/C [14]: 97 % of control
- T/C [15]: 95 % of control
- T/C (dose: 400.0 mg/kg/injection, schedule: Q01DX009 (ip), vehicle: saline with Tween-80): 95 % of control
- T/C [16]: 97 % of control

Compound: CC(=O)Nc1ccc(/C=N\N=C\c2ccc(NC(C)=O)cc2)cc1
- T/C (dose: 100.0 mg/kg/injection, schedule: Q01DX009 (ip), vehicle: saline): 88 % of control
- T/C [13]: 100 % of control
- T/C (dose: 200.0 mg/kg/injection, schedule: Q01DX009 (ip), vehicle: saline): 86 % of control
- T/C [15]: 105 % of control
- T/C [16]: 100 % of control

Compound: C=CCSC1=NC(=O)C(CCCC)C(=O)N1C (configuration not stated)
- T/C (dose: 75.0 mg/kg/injection, schedule: Q01DX001 (ip), vehicle: saline): 88 % of control

Compound: Oc1ccc(Nc2ccnc3cc(Cl)ccc23)cc1CN(CCCl)CCCl
- T/C (dose: 5.0 mg/kg/injection, schedule: Q01DX001 (ip), vehicle: saline): 109 % of control
- T/C (dose: 10.0 mg/kg/injection, schedule: Q01DX001 (ip), vehicle: saline): 109 % of control

Compound: Cc1nc(C(N)=O)c(=O)[nH]c1C
- T/C (dose: 6.25 mg/kg/injection, schedule: Q04DX003 (ip), vehicle: saline): 95 % of control
- T/C (dose: 12.5 mg/kg/injection, schedule: Q04DX003 (ip), vehicle: saline): 97 % of control
- T/C (dose: 25.0 mg/kg/injection, schedule: Q04DX003 (ip), vehicle: saline): 94 % of control
- T/C (dose: 50.0 mg/kg/injection, schedule: Q04DX003 (ip), vehicle: saline): 101 % of control
- T/C [6]: 102 % of control
- T/C [7]: 100 % of control
- T/C [8]: 100 % of control

Compound: COC(OC)(/C(Cl)=C(\Cl)c1ccccc1)c1ccccc1
- T/C [9]: 94 % of control
- T/C [10]: 88 % of control

Compound: CCOC(=O)Cn1c(C(F)(F)F)nc2nc(Cl)c(Cl)nc21
- T/C [11]: 97 % of control
- T/C [12]: 108 % of control
- T/C [14]: 97 % of control
